# Reference: paper PMC3750913 (BMC Microbiology, 2013)
# Like-named read-outs stand apart in the source and are kept apart here.
# What was measured:
# [1] = test system: HCMV; assay: Dose-response antiviral assay (plaque assay); format: cell-based, human cytomegalovirus; conditions: for SI (selectivity index, CC50/EC50): HCMV, HEL cells; for EC50: HCMV in HEL cells, co-treatment with viral inoculum, read-out: Antiviral effect EC50
# [2] = test system: MV; assay: Viral attachment assay, method 1 (host cell infection); format: cell-based, measles virus; conditions: for inhibition of entry (virus attachment): MV, method 1, 4°C, Figure 4, PUG more effective than CHLA
# [3] = test system: HCV; assay: as above; format: cell-based, hepatitis C virus; conditions: for inhibition of virus attachment: HCV, method 1, 4°C, Figure 4; for inhibition at 50 µM: Hepatitis C virus, Huh7.5, read-out: Window of antiviral effects: Attachment Method 1, inhibitory effect relative to DMSO control
# [4] = test system: RSV; assay: Analysis of drug effects post viral entry; format: cell-based, respiratory syncytial virus; conditions: for protection, treatment post-infection: RSV, Figure 6
# [5] = test system: HCV; assay: Viral attachment assay, method 2 (virus-specific cellular ELISA); format: cell-based, hepatitis C virus; conditions: HCV MOI 0.1, ELISA, 4°C; highest inhibitory concentration of the compounds
# [6] = test system: MV; assay: as above; format: cell-based, measles virus; conditions: MV MOI 1, ELISA, 4°C; highest inhibitory concentration of the compounds
# [7] = test system: MV; assay: Viral cell-to-cell spread assay; format: cell-based, measles virus; conditions: for effect on viral plaque size (cell-to-cell spread): MV, Figure 7
# [8] = test system: DENV-2; assay: Viral cell-to-cell spread assay; format: cell-based, dengue virus type 2; conditions: for effect on viral plaque size (cell-to-cell spread): DENV-2, Figure 7; for inhibition at 25 µM: Dengue virus, DENV2, Vero, read-out: Window of antiviral effects: Cell-to-cell spread, inhibitory effect relative to DMSO control
# [9] = test system: DENV-2; assay: Viral attachment assay, method 1 (host cell infection); format: cell-based, dengue virus type 2; conditions: DENV-2, method 1, 4°C; Figure 4
# [10] = test system: DENV-2; assay: Analysis of drug effects post viral entry; format: cell-based, dengue virus type 2; conditions: DENV-2; Figure 6
# [11] = test system: MV; assay: Viral inactivation assay; format: cell-based, measles virus; conditions: for block of infection after pre-incubation of free virus with compound: MV, CHLA 90 μM, PUG 50 μM, Figure 3
# [12] = test system: HCV; assay: Viral cell-to-cell spread assay; format: cell-based, hepatitis C virus; conditions: for effect on viral plaque size (cell-to-cell spread): HCV, Figure 7; for inhibition at 50 µM: Hepatitis C virus, Huh7.5, read-out: Window of antiviral effects: Cell-to-cell spread, inhibitory effect relative to DMSO control
# Experimental: (A) Schematic of the experiment (left) with the virus concentration (PFU/well) and step-wise incubation periods (i, ii, iii) indicated for each virus in the table on the right. Virus infections were established (i) in the different cell types by direct inoculation (HCMV, DENV-2, MV, and RSV) or electroporation of viral RNA (HCV; *), and the cell monolayers were washed with citrate buffer or PBS before being covered with an overlay medium that prevents secondary infection. Initial virus plaques were allowed to form in the subsequent infections (ii), and then the test compounds were added to the overlay medium for an additional time of incubation (iii) before analysis of viral plaque size by immune fluorescence microscopy. Five random virus-positive plaques at the endpoint of the experiment were evaluated for each treatment group of viruses, and the data was plotted as “fold change of plaque area” against the size of the initial viral plaques formed prior to test compound treatment. Analyses for (B) HCMV, (C) HCV, (D) DENV-2, (E) MV, and (F) RSV are indicated in each additional panel. The S29 cell line and the FIP inhibitor were included as controls for HCV and MV, respectively. Results shown are means ± SEM from three independent experiments and representative micrographs of the evaluated plaques are provided in Additional file 1 Figure S1, Additional file 2 Figure S2, Additional file 3 Figure S3, Additional file 4 Figure S4 and Additional file 5 Figure S5. See text for details.
# The examination of HCV spread is based on previously described protocol with some modifications. Huh-7.5 cells were electroporated with HCV Jc1FLAG2(p7-nsGluc2A) RNA (10 μg) as described above to establish random productive infections in the cell population, and then mixed with naïve cells at a ratio of 1:1 before seeding in 12-well plates. […] Medium was changed 24 h post-electroporation with an overlay medium containing the test drugs or control and 0.5% methylcellulose, and the plates were further incubated for 5 days before analysis of HCV-positive foci through immunostaining.
# For immunofluorescence analysis of viral plaque size due to spread, the overlay media were removed and the wells were fixed with ice-cold methanol before blocking with 3% BSA. Samples were then treated at 37°C for 1 h with the respective mouse monoclonal primary antibodies diluted in PBS containing 3% BSA: anti-HCMV gB antibody (1:1,000), anti-NS5A 9E10 antibody for HCV (1:25,000), anti-flavivirus group antibody (1:400) for DENV-2, and anti-RSV fusion protein antibody (1:1,000). After incubation, the wells were washed with PBS three times before applying Alexa Fluor 488 goat anti-mouse IgG (H + L) antibody (Invitrogen), diluted at 1:1,000 (HCMV and RSV) or 1:400 (DENV-2 and HCV) in PBS containing 3% BSA. Following incubation at 37°C for 1 h, the samples were washed with PBS three times prior to visualization by fluorescence microscopy. The fluorescence expression of MV-EGFP could be readily detected without addition of antibodies. Photomicrographs were taken at × 100 magnification (Leica Microsystems; Wetzlar, Germany) and viral plaque sizes were then analyzed with MetaMorph software (Molecular Devices; Sunnyvale, CA, USA). In the case of HCV, cellular nuclei were stained with Hoechst dye (Sigma) prior to visualization and the number of cells in the virus-positive foci was determined. For all virus tested, a total of five random virus-positive plaques were evaluated for each treatment group per independent experiment. Comparison was made between viral plaques stained prior to drug addition and those at the endpoint of the experiment, and the data were plotted as “fold change of plaque area”.
# [13] = test system: ADV-5; assay: Dose-response antiviral assay (plaque assay); format: cell-based, human adenovirus type-5; conditions: Human adenovirus sp.; ADV-5 in A549 cells, co-treatment with viral inoculum; read-out: Antiviral effect EC50
# [14] = test system: HCMV; assay: Viral inactivation assay; format: cell-based, human cytomegalovirus
# [15] = test system: HCV; assay: Analysis of drug effects post viral entry; format: cell-based, hepatitis C virus; conditions: for protection, treatment post-infection: HCV, Figure 6; for inhibition at 50 µM: Hepatitis C virus, Huh7.5, read-out: Window of antiviral effects: Post-infection, inhibitory effect relative to DMSO control
# [16] = test system: HCMV; assay: Viral attachment assay, method 2 (virus-specific cellular ELISA); format: cell-based, human cytomegalovirus; conditions: HCMV MOI 5, ELISA, 4°C; highest inhibitory concentration of the compounds
# [17] = test system: DENV-2; assay: Viral inactivation assay; format: cell-based, dengue virus type 2; conditions: Dengue virus
# [18] = test system: RSV; assay: Viral attachment assay, method 1 (host cell infection); format: cell-based, respiratory syncytial virus; conditions: for inhibition of virus attachment: RSV, method 1, 4°C, Figure 4
# [19] = test system: RSV; assay: Viral cell-to-cell spread assay; format: cell-based, respiratory syncytial virus; conditions: for effect on viral plaque size (cell-to-cell spread): RSV, Figure 7
# [20] = Measles morbillivirus, read-out: Window of antiviral effects: Attachment Method 1, inhibitory effect relative to DMSO control
# [21] = Measles morbillivirus, read-out: Window of antiviral effects: Cell-to-cell spread, inhibitory effect relative to DMSO control
# [22] = Measles morbillivirus, read-out: Window of antiviral effects: Free particle, inhibitory effect relative to DMSO control
# [23] = Human betaherpesvirus 5, read-out: inhibition of infection after pre-incubation of free virus with compound
# [24] = DENV2, Vero, read-out: Window of antiviral effects: Free particle, inhibitory effect relative to DMSO control
# [25] = DENV2, read-out: inhibition of infection after pre-incubation of free virus with compound
# [26] = human respiratory syncytial virus, HEp-2, read-out: Window of antiviral effects: Attachment Method 1, inhibitory effect relative to DMSO control
# [27] = human respiratory syncytial virus, HEp-2, read-out: Window of antiviral effects: Cell-to-cell spread, inhibitory effect relative to DMSO control
Structure (SMILES),"SI (selectivity index, CC50/EC50) [1]",inhibition of entry (virus attachment) [2],inhibition of virus attachment [3],inhibition at 50 µM [3] [%],"protection, treatment post-infection [4] [%]","Window of antiviral effects: Attachment Method 2, inhibitory effect relative to DMSO control [5]","Window of antiviral effects: Attachment Method 2, inhibitory effect relative to DMSO control [6]",effect on viral plaque size (cell-to-cell spread) [7],effect on viral plaque size (cell-to-cell spread) [8],inhibition at 25 µM [8] [%],inhibition of virus attachment [9],"protection, treatment post-infection [10] [%]",block of infection after pre-incubation of free virus with compound [11],effect on viral plaque size (cell-to-cell spread) [12],inhibition at 50 µM [12] [%],EC50 [13] [µM],"protection, treatment post-infection [15]",inhibition at 50 µM [15] [%],"Window of antiviral effects: Attachment Method 2, inhibitory effect relative to DMSO control [16]","inhibition at 25 µM [17, 24] [%]",other results
"O=C1O[C@H]2[C@@H]3OC(=O)c4cc(O)c(O)c(O)c4-c4c(O)c(O)c5oc(=O)c6c(c(O)c(O)c7oc(=O)c4c5c76)-c4c(cc(O)c(O)c4O)C(=O)OC[C@H]3OC(O)[C@@H]2OC(=O)c2cc(O)c(O)c(O)c2-c2c1cc(O)c(O)c2O (mixture of isomers) [PUG, punicalagin]",17.86,50 – 80%,90 – 100%,> 75,< 25,+++ (+++ > 75%),++ (++ 50–75%),near initial size,unaffected and expanded further,< 25,90 – 100%,< 25,60 – 80%,near initial size,> 75,197 ± 20.1,80 – 100%,> 75,++ (++ 50–75%),> 75,"inhibition at 50 µM [2, 20]: > 75%; inhibition at 2 µM ([4]; human respiratory syncytial virus, HEp-2, read-out: Window of antiviral effects: Post-infection, inhibitory effect relative to DMSO control): < 25%; inhibition at 50 µM [7, 21]: > 75%; inhibition at 50 µM [11, 22]: 50 to 75%; inhibition at 40 µM ([14]; Human betaherpesvirus 5, HEL, read-out: Window of antiviral effects: Free particle, inhibitory effect relative to DMSO control): > 75%; inhibition at 40 µM [14, 23]: ~100%; inhibition at 25 µM [17, 25]: ~100%; inhibition of virus attachment [18]: 90 – 100%; inhibition at 2 µM [18, 26]: > 75%; effect on viral plaque size (cell-to-cell spread) [19]: unaffected and expanded further; inhibition at 2 µM [19, 27]: < 25%"
"O=C(O)C[C@@H]1C(=O)O[C@H]2[C@@H]3OC(=O)c4cc(O)c(O)c(O)c4-c4c(cc(O)c(O)c4O)C(=O)OC[C@H]2O[C@@H](OC(=O)c2cc(O)c(O)c(O)c2)[C@@H]3OC(=O)c2cc(O)c(O)c3c2[C@H]1[C@H](O)C(=O)O3 [CHLA, chebulagic acid]",12.01,50 – 80%,90 – 100%,> 75,< 25,+++ (+++ > 75%),++ (++ 50–75%),near initial size,unaffected and expanded further,< 25,90 – 100%,< 25,60 – 80%,near initial size,> 75,198 ± 14.1,80 – 100%,> 75,+++ (+++ > 75%),> 75,"EC50 [1]: 25.5 ± 1.51 µM; EC50 ([1]; Human betaherpesvirus 5, HEL): < 35 µM; inhibition at 90 µM [2, 20]: 50 to 75%; inhibition at 90 µM [7, 21]: > 75%; inhibition at 90 µM [11, 22]: 50 to 75%; inhibition at 60 µM [14, 23]: ~100%; inhibition at 25 µM [17, 25]: ~100%; inhibition of virus attachment [18]: 90 – 100%; inhibition at 1 µM [18, 26]: > 75%; effect on viral plaque size (cell-to-cell spread) [19]: unaffected and expanded further; inhibition at 1 µM [19, 27]: < 25%"
